Measured values reported in EP0466944A1, “4H-3,1-BENZOXAZIN-4-ONE COMPOUND AND ELASTASE INHIBITOR COMPOSITION CONTAINING THE SAME” (TEIJIN LIMITED, priority 1990, dated 1991).

System: human purulent sputum elastase
Assay: Inhibitory effect on pulmonary hemorrhage in elastase-given hamsters (hemoglobin in bronchoalveolar lavage fluid)
Type: in vivo, Syrian Golden Hamsters
Details: 1 mg/kg through respiratory tract 30 minutes before elastase (1 mg/kg), lavage three hours after elastase
Experimental: The efficacy of the compounds of the invention in vivo can be evaluated by the following procedures. In other words, a certain dose of a solution or dispersion of the compound of the invention is given through the respiratory tract, then human purulent sputum elastase is given through the respiratory tract after a certain time. The bronchoalveolar lavage were performed at a definite time after the elastase treatment and the hemoglobin is determined in the bronchoalveolar lavage fluids. The pulmonary hemorrhage is compared with that when a solution containing no compound of the present invention is given to measure the hemorrhage-inhibitory effect of the compounds of the present invention (Bonney et al., J. Cellular Biochemistry, 39, 47 - 53, (1989)).
The compounds according to the invention listed in Table 3 were dissolved or dispersed in 0.01 M phosphate-buffered physiological saline solution (pH 7.5), given to Syrian Golden Hamsters (body weight: about 100 g) 1 mg/kg through respiratory tract, then 30 minutes later, human purulent sputum elastase was given (1 mg/kg) through respiratory tract. Three hours after elastase administration, the animals were sacrificed by bleeding to open their chests and the bronchoalveolar lavage was performed with physiological saline solution. The hemoglobin in the lavage fluid was determined by the cyanmethemoglobin method. […]

In the case of `Cc1cc(NC(=O)C(Cc2ccccc2)NC(=O)OCc2ccccc2)cc2nc(NC(C)C)oc(=O)c12` (stereo not shown) [Comparative example 1], the “inhibition rate of pulmonary hemorrhage” value is reported as “weak”.
